Results: patent US20240277670A1, “SAFE USE OF MMP-12 INHIBITOR” (Foresee Pharmaceuticals Co., Ltd., priority 2021, published 2024)
“Also recorded” adds a separate entry of the source. Where two headings read alike, the source gives them in different places.

Key:
Type in all cases: in vivo, human
[1] = Multiple ascending dose (MAD) part, plasma pharmacokinetics; settings: for CL/F / Kel / AI / CLss/F / Cavg / Cmin / Fl / RAUC2: AUC0-12 (Day 8)/AUC0-inf (Day 1) / AUC(0-t) / AUC(0-inf) / Cmax / half-life / Vd/F: mean; for AUC(0-t) / AUC(0-inf) / Cmax / half-life / Vd/F / Tmax: human, plasma; for Vd/F: read-out: Vz/F; for Tmax: median
Experimental: (§1) Three cohorts of eight subjects each (six on active and two on placebo) were enrolled and received the following treatments orally: 100 mg, 200 mg, and 400 mg ASD-in-Capsule b.i.d. (one dose on Days 1 and 8, twice-daily doses from Days 2 to 7) (FIG. 4).
(§2) Blood samples were collected post-dosing on Day 1 (at 0.5, 1, 2, 3, 4, 6, 8, 12, and 16 hours) and Day 8 (at 0.5, 1, 2, 3, 4, 6, 8, 10, 12, 16, 20, 24, 30, 36, and 48 hours) as well as immediately pre-morning dose on Days 2-7 and 2 hours post-morning dose on Days 4 and 6. Within 15 minutes of collection, blood samples were centrifuged at 2000 rpm for 10 minutes at 4° C., and, subsequently, the plasma was aliquoted, frozen, and stored at −70° C. pending PK analyses.
(§3) The samples were subjected to liquid chromatography followed by analyses by tandem mass spectrometry. The lower limit of quantification for the compound of formula (I) was 5 ng/mL.
(§4) The plasma PK parameters were derived by non-compartmental analyses using Phoenix® WinNonlin® version 6.3 or higher (Pharsight Corporation Inc., Mountain View, CA, USA). PK variables were summarized using arithmetic mean, standard deviation, median, minimum, maximum, the percent coefficient of variation, geometric mean, and a two-sided 95% confidence limit of the arithmetic mean and the geometric mean.

[2] = Multiple ascending dose (MAD) part, safety and tolerability; settings: for Adverse events possibly-related to drug administration: Multiple ascending dose, ASD formulation
Experimental: as §1
(§5) Safety and tolerability were assessed at pre-specified timepoints throughout the studies by AEs reporting, vital signs measurements, physical examination, laboratory tests, and ECG examinations.
(§6) Safety and tolerability data were evaluated for the treated population (all participants who took at least one dose of study medications). […] Descriptive statistics were used to evaluate the for safety and tolerability data and for plasma concentrations and PK parameters of the compound of formula (I).

[3] = Food effect (FE) part, plasma pharmacokinetics; settings: for AUC / AUC(0-inf) / Cmax / AUC(0-t) / half-life / Vd/F / Tmax: human, plasma, po, 200 mg; for AUC: read-out: AUC0- GM; for Vd/F: read-out: Vz/F; for Tmax: median
Experimental: (§7) In this part, eight subjects received 200 mg ASD-in-Capsule orally as a single dose in a randomized way, once under fasting conditions and once after the intake of a high fat breakfast, with a wash-out period of one week between successive dosing (FIG. 4).
as §2, §3, §4
For the evaluations of food effect on the PK profile of the compound of formula (I), the analysis of variance (ANOVA) model included sequence, treatment, and period as fixed effects and subject nested within sequence as a random effect using the SASR mixed model procedure. Each ANOVA included calculation of Least Squares Means (LSM), the difference between LSM under fed condition (Test) over fasted condition (Reference), and the standard error associated with this difference.

[4] = Food effect (FE) part, safety and tolerability; settings: for Adverse events possibly-related to drug administration: 200 mg, ASD formulation
Experimental: as §7, §5, §6

[5] = Treatment A (100 mg ASD-in-Capsule oral), Day 1
[6] = Treatment A (100 mg, b.i.d. Days 2-7), Day 8
[7] = Treatment B (200 mg ASD-in-Capsule oral), Day 1
[8] = Treatment B (200 mg, b.i.d. Days 2-7), Day 8
[9] = Treatment C (400 mg ASD-in-Capsule oral), Day 1
[10] = Treatment C (400 mg, b.i.d. Days 2-7), Day 8
[11] = oral, Treatment A (100 mg, b.i.d. Days 2-7), Day 8
[12] = oral, Treatment B (200 mg, b.i.d. Days 2-7), Day 8
[13] = oral, Treatment C (400 mg, b.i.d. Days 2-7), Day 8
[14] = 200 mg single oral dose, fed over fasted, geometric least-squares mean ratio
[15] = Treatment D: single oral dose 200 mg ASD-in-Capsule, fasted, mean
[16] = Treatment E: single oral dose 200 mg ASD-in-Capsule, fed (high-fat, high-calorie breakfast), mean

For Cc1cccc(COc2ccc(Sc3ccoc3C3NC(=O)NC3=O)cc2)c1 (stereo not shown) [compound of formula (I)], the CL/F [1, 5] was 28.7 L/h, the Kel [1, 5] was 0.106 h⁻¹ and the AI [1, 6] was 1.59. For the same compound, the CLss/F [1, 6] was 23.1 L/h, the Cavg [1, 6] was 0.365 µg/mL and the Cmin [1, 6] was 0.156 µg/mL. The Fl [1, 6] was 127%, the Kel [1, 6] was 0.0897 h⁻¹ and the “RAUC2: AUC0-12 (Day 8)/AUC0-inf (Day 1)” value ([1]; Treatment A (100 mg, b.i.d. Days 2-7)) was 1.25. The CL/F [1, 7] was 20.3 L/h, the Kel [1, 7] was 0.119 h⁻¹ and the AI [1, 8] was 1.57. It also gave a CLss/F [1, 8] of 16.2 L/h, a Cavg [1, 8] of 1.09 µg/mL and a Cmin [1, 8] of 0.524 µg/mL. The Fl [1, 8] was 132%, the Kel [1, 8] was 0.0895 h⁻¹ and the “RAUC2: AUC0-12 (Day 8)/AUC0-inf (Day 1)” value ([1]; Treatment B (200 mg, b.i.d. Days 2-7)) was 1.26. For the same compound, the CL/F [1, 9] was 24.0 L/h, the Kel [1, 9] was 0.113 h⁻¹ and the AI [1, 10] was 1.40. For the same compound, the CLss/F [1, 10] was 18.2 L/h, the Cavg [1, 10] was 2.06 µg/mL and the Cmin [1, 10] was 1.01 µg/mL. For the same compound, the Fl [1, 10] was 142%, the Kel [1, 10] was 0.115 h⁻¹ and the “RAUC2: AUC0-12 (Day 8)/AUC0-inf (Day 1)” value ([1]; Treatment C (400 mg, b.i.d. Days 2-7)) was 1.28. For the same compound, the Steady state achieved ([1]; all three dose levels (100, 200, 400 mg b.i.d.)) was no more than 6 days, the “Increase of Cmax and AUC with dose” value ([1]; from 200 to 400 mg after multiple doses for a week) was “approximately in a dose-proportional manner” and the AUC(0-t) ([1]; oral, 100 mg, Treatment A (100 mg, b.i.d. Days 2-7), Day 8, read-out: AUC0-12) was 4.38 µg·h/mL. The AUC(0-t) ([1]; oral, 200 mg, Treatment B (200 mg, b.i.d. Days 2-7), Day 8, read-out: AUC0-12) was 13.1 µg·h/mL, the AUC(0-t) ([1]; oral, 400 mg, Treatment C (400 mg, b.i.d. Days 2-7), Day 8, read-out: AUC0-12) was 24.7 µg·h/mL and the AUC(0-inf) [1, 11] was 6.18 µg·h/mL. For the same compound, the Cmax [1, 11] was 0.624 µg/mL, the half-life [1, 11] was 8.37 h and the Vd/F [1, 11] was 277 L. For the same compound, the Tmax [1, 11] was 2 h, the AUC(0-inf) [1, 12] was 19.2 µg·h/mL and the Cmax [1, 12] was 1.92 µg/mL. It also gave a half-life [1, 12] of 8.14 h, a Vd/F [1, 12] of 189 L and a Tmax [1, 12] of 1.5 h. The AUC(0-inf) [1, 13] was 36.3 µg·h/mL, the Cmax [1, 13] was 3.71 µg/mL and the half-life [1, 13] was 6.57 h. The Vd/F [1, 13] was 158 L, the Tmax [1, 13] was 1.5 h and the AUC(0-t) ([1]; po, 100 mg, Treatment A (100 mg ASD-in-Capsule oral), Day 1, read-out: AUC0-12) was 2.67 µg·h/mL. It also gave an AUC(0-t) ([1]; po, 100 mg, Treatment A (100 mg ASD-in-Capsule oral), Day 1, read-out: AUC0-24) of 3.29 µg·h/mL, an AUC(0-t) ([1]; po, 100 mg, Treatment A (100 mg ASD-in-Capsule oral), Day 1, read-out: AUC0-t) of 3.29 µg·h/mL and an AUC(0-t) ([1]; po, 200 mg, Treatment B (200 mg ASD-in-Capsule oral), Day 1, read-out: AUC0-12) of 7.81 µg·h/mL. It also gave an AUC(0-t) ([1]; po, 200 mg, Treatment B (200 mg ASD-in-Capsule oral), Day 1, read-out: AUC0-24) of 9.72 µg·h/mL, an AUC(0-t) ([1]; po, 200 mg, Treatment B (200 mg ASD-in-Capsule oral), Day 1, read-out: AUC0-t) of 9.71 µg·h/mL and an AUC(0-t) ([1]; po, 400 mg, Treatment C (400 mg ASD-in-Capsule oral), Day 1, read-out: AUC0-12) of 14.6 µg·h/mL. It also gave an AUC(0-t) ([1]; po, 400 mg, Treatment C (400 mg ASD-in-Capsule oral), Day 1, read-out: AUC0-24) of 18.2 µg·h/mL, an AUC(0-t) ([1]; po, 400 mg, Treatment C (400 mg ASD-in-Capsule oral), Day 1, read-out: AUC0-t) of 18.2 µg·h/mL and an AUC(0-inf) [1, 5] of 3.55 µg·h/mL. For the same compound, the Cmax [1, 5] was 0.448 µg/mL, the half-life [1, 5] was 6.9 h and the Vd/F [1, 5] was 291 L. The Tmax [1, 5] was 1 h, the AUC(0-inf) [1, 7] was 10.4 µg·h/mL and the Cmax [1, 7] was 1.2 µg/mL. For the same compound, the half-life [1, 7] was 6.02 h, the Vd/F [1, 7] was 176 L and the Tmax [1, 7] was 1.02 h. It also gave an AUC(0-inf) [1, 9] of 19.9 µg·h/mL, a Cmax [1, 9] of 2.73 µg/mL and a half-life [1, 9] of 6.48 h. The Vd/F [1, 9] was 212 L, the Tmax [1, 9] was 1 h and the “AUC ratio (Day 8/Day 1)” value ([1]; twice-daily administration, all three dose levels) was “approximately 1.7 fold”. For the same compound, the “Total number of AEs possibly related to treatment” value ([2]; MAD study, all dose levels) was “seven”, the “Adverse events possibly-related to drug administration” value (“Adverse events possibly-related” below) ([2]; 100 mg) was “fatigue; also recorded: cough” and the “Adverse events possibly-related” value ([2]; 200 mg) was “eye irritation; also recorded: erythema; also recorded: dizziness; also recorded: skin rash”. The “Severe or serious AEs” value ([2]; Study II (MAD and FE parts)) was “No severe or serious AEs were reported”, the “Changes from baseline in weight, vital signs, physical examination, laboratory or ECG data” value ([2]; Study II (MAD and FE parts), any time point) was “No clinically relevant changes” and the “Safety and tolerability, overall” value ([2]; across all dose levels and dosing regimens studied) was “safe and generally well-tolerated”. The “AUC0- GMR Treatment E/D” value [3, 14] was 103.42 percentage, the “AUC0-inf GMR Treatment E/D” value [3, 14] was 102.76 percentage and the “Cmax GMR Treatment E/D” value [3, 14] was 74.53 percentage. The CL/F [3, 15] was 32.3 L/h, the Kel [3, 15] was 0.0796 h⁻¹ and the CL/F [3, 16] was 32.3 L/h. The Kel [3, 16] was 0.0917 h⁻¹, the AUC ([3]; Treatment D: 200 mg single oral dose, fasted, geometric least-squares mean) was 6.26 µg·h/mL and the AUC(0-inf) ([3]; Treatment D: 200 mg single oral dose, fasted, geometric least-squares mean, read-out: AUC0-inf GM) was 6.4 µg·h/mL. For the same compound, the Cmax ([3]; Treatment D: 200 mg single oral dose, fasted, geometric least-squares mean, read-out: Cmax GM) was 1.02 µg/mL, the AUC(0-t) [3, 15] was 6.49 µg·h/mL and the half-life [3, 15] was 9.36 h. It also gave an AUC(0-inf) ([3]; Treatment D: single oral dose 200 mg ASD-in-Capsule, fasted, mean, read-out: AUC0-inf) of 6.62 µg·h/mL, a Cmax ([3]; Treatment D: single oral dose 200 mg ASD-in-Capsule, fasted, mean, read-out: Cmax) of 1.05 µg/mL and a Vd/F [3, 15] of 446 L. The Tmax ([3]; Treatment D: single oral dose 200 mg ASD-in-Capsule, fasted) was 1 h, the AUC ([3]; Treatment E: 200 mg single oral dose, fed, geometric least-squares mean) was 6.48 µg·h/mL and the AUC(0-inf) ([3]; Treatment E: 200 mg single oral dose, fed, geometric least-squares mean, read-out: AUC0-inf GM) was 6.58 µg·h/mL. For the same compound, the Cmax ([3]; Treatment E: 200 mg single oral dose, fed, geometric least-squares mean, read-out: Cmax GM) was 0.764 µg/mL, the AUC(0-t) [3, 16] was 6.8 µg·h/mL and the half-life [3, 16] was 8.09 h. For the same compound, the AUC(0-inf) ([3]; Treatment E: single oral dose 200 mg ASD-in-Capsule, fed (high-fat, high-calorie breakfast), mean, read-out: AUC0-inf) was 6.9 µg·h/mL, the Cmax ([3]; Treatment E: single oral dose 200 mg ASD-in-Capsule, fed (high-fat, high-calorie breakfast), mean, read-out: Cmax) was 0.787 µg/mL and the Vd/F [3, 16] was 383 L. For the same compound, the Tmax ([3]; Treatment E: single oral dose 200 mg ASD-in-Capsule, fed (high-fat, high-calorie breakfast)) was 2.5 h, the “Adverse events possibly-related” value ([4]; Food effect fasting status) was “headache” and the “Adverse events possibly-related” value ([4]; Food effect fed status) was “headache”. The “Total number of AEs possibly related to treatment” value ([4]; food effect part, in one subject) was “two”.
